Results as given in publication doi:10.1101/119818v1 (biorxiv, 2017).

Biological target: T1, PARP3 (Homo sapiens, UniProt Q9Y6F1)
T1 sequence (Q9Y6F1 1-533): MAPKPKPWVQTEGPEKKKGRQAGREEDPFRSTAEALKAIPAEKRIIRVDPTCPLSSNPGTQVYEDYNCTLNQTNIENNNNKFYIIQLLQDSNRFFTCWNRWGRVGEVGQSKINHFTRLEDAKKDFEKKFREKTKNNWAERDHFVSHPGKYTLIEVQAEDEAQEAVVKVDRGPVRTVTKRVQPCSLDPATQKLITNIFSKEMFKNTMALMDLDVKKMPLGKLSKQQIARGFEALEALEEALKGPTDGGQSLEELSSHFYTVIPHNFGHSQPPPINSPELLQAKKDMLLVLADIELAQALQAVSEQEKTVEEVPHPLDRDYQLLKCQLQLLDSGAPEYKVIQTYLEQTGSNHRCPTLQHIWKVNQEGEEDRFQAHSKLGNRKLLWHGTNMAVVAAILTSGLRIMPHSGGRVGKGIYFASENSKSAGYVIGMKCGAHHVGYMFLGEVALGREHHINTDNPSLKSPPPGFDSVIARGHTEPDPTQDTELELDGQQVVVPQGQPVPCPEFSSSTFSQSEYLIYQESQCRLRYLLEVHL
Assay: in vitro enzymatic inhibition assay, concentration response
Format: biochemical

IC50: 728 nM
SMILES: NC(=O)c1cccc2[nH]c(-c3ccc([C@@H]4CCCN4)cc3F)nc12 [A-966492]
